# Key:
# Bacillus Cereus = test: Agar plate disc-diffusion, antibacterial activity (inhibition zone); type: cell-based; conditions: nutrient agar, 37° C., 48 hours, DMSO zone subtracted; for inhibition zone, Bacillus Cereus, B: B = concentration of comp. = 30.000 μL; for inhibition zone, Bacillus Cereus, C: C = concentration of comp. = 50,000 μL
# Description: (§1) The agar plate disc-diffusion method was applied. Sterilized filter papers (6 mm in diameter) were wetted with 10 μL of a solution of 1-(2-hydroxybenzylideneamino)-5-phenylimidazolidine-2,4-dione (4) to be tested, containing 10 mg/mL in DMSO, and the discs were allowed to air dry. The discs were then placed onto the surface of agar plates (nutrient agar for bacteria and Sabouraud's dextrose agar for fungi) seeded with the test organism. Each plate contained 15 mL of the agar medium, previously seeded with 0.2 mL of the broth culture of each organism pregrown for 18 hours. The plates were incubated at 37° C. for 48 hours, and 72 hours for fungi. The inhibition zones was measured in millimeter. Discs impregnated with DMSO were used as a control, and its inhibition zone was subtracted from the tested compound actual inhibition zone.
# (§2) The results of the antimicrobial testing can be observed in Tables 1 and 2, below, with ciprofloxacin serving as a reference.
# Escherichia coli = test: as above; type: cell-based; conditions: nutrient agar, 37° C., 48 hours, DMSO zone subtracted; for inhibition zone, Escherichia coli, A: A = concentration of comp. = 10,000 μL; for inhibition zone, Escherichia coli, B: B = concentration of comp. = 30.000 μL; for inhibition zone, Escherichia coli, C: C = concentration of comp. = 50,000 μL
# Description: as §1, §2
# Pseudomonas aeruginosa = test: as above; type: cell-based; conditions: nutrient agar, 37° C., 48 hours, DMSO zone subtracted; for inhibition zone, Pseudomonas aeruginosa, A: A = concentration of comp. = 10,000 μL; for inhibition zone, Pseudomonas aeruginosa, B: B = concentration of comp. = 30.000 μL; for inhibition zone, Pseudomonas aeruginosa, C: C = concentration of comp. = 50,000 μL
# Description: as §1, §2
# Staphylococcus aureus = test: as above; type: cell-based; conditions: nutrient agar, 37° C., 48 hours, DMSO zone subtracted; for inhibition zone, Staphylococcus aureus, A: A = concentration of comp. = 10,000 μL; for inhibition zone, Staphylococcus aureus, B: B = concentration of comp. = 30.000 μL; for inhibition zone, Staphylococcus aureus, C: C = concentration of comp. = 50,000 μL
# Description: as §1, §2
# Aspergillus flavus = test: Agar plate disc-diffusion, antifungal activity (inhibition zone); type: cell-based; conditions: Sabouraud's dextrose agar, 37° C., 72 hours, DMSO zone subtracted; for inhibition zone, Aspergillus flavus, A: A = concentration of comp. = 10,000 μL; for inhibition zone, Aspergillus flavus, B: B = concentration of comp. = 30.000 μL; for inhibition zone, Aspergillus flavus, C: C = concentration of comp. = 50,000 μL
# Description: as §1, §2
# [1] = system: Chrysosporium keratinophilum; test: as above; type: cell-based; conditions: Sabouraud's dextrose agar, 37° C., 72 hours, DMSO zone subtracted; for inhibition zone, Chrysosporium keratinophilum, A: A = concentration of comp. = 10,000 μL; for inhibition zone, Chrysosporium keratinophilum, B: B = concentration of comp. = 30.000 μL; for inhibition zone, Chrysosporium keratinophilum, C: C = concentration of comp. = 50,000 μL
# Description: as §1, §2
SMILES,"inhibition zone, Bacillus Cereus, A (Bacillus Cereus) [millimeter]","inhibition zone, Bacillus Cereus, B (Bacillus Cereus) [millimeter]","inhibition zone, Bacillus Cereus, C (Bacillus Cereus) [millimeter]","inhibition zone, Escherichia coli, A (Escherichia coli) [millimeter]","inhibition zone, Escherichia coli, B (Escherichia coli) [millimeter]","inhibition zone, Escherichia coli, C (Escherichia coli) [millimeter]","inhibition zone, Pseudomonas aeruginosa, A (Pseudomonas aeruginosa) [millimeter]","inhibition zone, Pseudomonas aeruginosa, B (Pseudomonas aeruginosa) [millimeter]","inhibition zone, Pseudomonas aeruginosa, C (Pseudomonas aeruginosa) [millimeter]","inhibition zone, Staphylococcus aureus, A (Staphylococcus aureus) [millimeter]","inhibition zone, Staphylococcus aureus, B (Staphylococcus aureus) [millimeter]","inhibition zone, Staphylococcus aureus, C (Staphylococcus aureus) [millimeter]","inhibition zone, Aspergillus flavus, A (Aspergillus flavus) [millimeter]","inhibition zone, Aspergillus flavus, B (Aspergillus flavus) [millimeter]","inhibition zone, Aspergillus flavus, C (Aspergillus flavus) [millimeter]","inhibition zone, Chrysosporium keratinophilum, A [1] [millimeter]","inhibition zone, Chrysosporium keratinophilum, B [1] [millimeter]","inhibition zone, Chrysosporium keratinophilum, C [1] [millimeter]",melting point [°C]
"O=C(O)c1cn(C2CC2)c2cc(N3CCNCC3)c(F)cc2c1=O [Cip., ciprofloxacin, reference compound]",29,30,42,30,39,60,29,30,53,43,44,53,29,30,42,29,30,53,–
"O=C1NC(=O)N(/N=C/c2ccccc2O)C1c1ccccc1 (stereo not shown) [Compound 4, 1-(2-hydroxybenzylideneamino)-5-phenylimidazolidine-2,4-dione]",23,27,35,27,36,49,20,26,37,15,19,27,24,28,38,27,29,48,161 to 163
